Experimental data from US7439351B2, “2′ or 3′ -deoxy and 2′, 3′-dideoxy-β-L-pentofuranonucleo-side compounds, method of preparation and application in therapy, especially as anti-viral agents” (The UAB Research Foundation, priority 1993, dated 2008).
“Also recorded” adds a separate entry of the source.

Experiments:
noninfected PBM cells = test: Toxic effect on noninfected cells (formazan formation), PBM; conditions: at least 50% inhibition of formazan formation, 5 days
Method: (§1) The toxic effect on the noninfected cells is assessed by calorimetric reaction based on the capacity of live cells to reduce 3-(4,5-dimethylthiozol-2-yl)-2,5-diphenyltetrazolium bromide to formazan after incubating for 5 days in the presence of various concentrations of the compounds.

noninfected PBMC = test: Toxic effect on noninfected cells (formazan formation), PBMC; conditions: at least 50% inhibition of formazan formation, 5 days
Method: as §1

noninfected CEM-SS cells = test: Toxic effect on noninfected cells (formazan formation), CEM-SS; conditions: at least 50% inhibition of formazan formation, 5 days
Method: as §1

HIV [1] = conditions: prior art reports; listed as β-L-DDC; cited from earlier work
HIV [2] = conditions: CEM cell culture; Mansuri et al. 1991; read-out: IC50 against HIV; cited from earlier work
[3] = tested on: herpes simplex viruses (HSV); conditions: cell cultures; Spadari et al. 1992; cited from earlier work

Structure (SMILES)	CD50 (noninfected PBM cells)	CD50 (noninfected PBMC)	CD50 (noninfected CEM-SS cells)	activity against HIV (in words) (HIV [1])	IC50 (HIV [2])	antiviral activity against HSV (in words) [3]
Cc1cn([C@H]2C[C@H](N=[N+]=[N-])[C@@H](CO)O2)c(=O)[nH]c1=O [AZT, reference compound]	7e-05 M	8e-05 M	>10^−4 M			
Nc1ccn([C@@H]2CC[C@H](CO)O2)c(=O)n1 [Compound 21a, 2′,3′-dideoxy-β-L-cytidine]	10^−4 M	10^−4 M	8.3e-05 M	relatively limited antiviral activity; also recorded: no activity against HIV	660 nM	
Nc1nc(=O)n([C@@H]2CC[C@H](CO)O2)cc1F [Compound 21b, 2′,3′-dideoxy-β-L-5-fluorocytidine]	10^−4 M	10^−4 M	9e-05 M			
Nc1ccn([C@H]2CC[C@@H](CO)O2)c(=O)n1 [DDC, reference compound]	7e-05 M	2.5e-05 M	6e-05 M			
Cc1cn([C@@H]2C[C@@H](O)[C@H](CO)O2)c(=O)[nH]c1=O [β-L-Thymidine]						relatively limited antiviral activity
